Measured values from patent US7943770B2, “Fused quinoline derivative and use thereof” (Takeda Pharmaceutical Company Limited, priority 2004, dated 2011).

Molecular target: T1, hNK2 receptor (Homo sapiens, UniProt P21452)
T1 construct: host or cells: CHO cells
T1 sequence (P21452 1-398): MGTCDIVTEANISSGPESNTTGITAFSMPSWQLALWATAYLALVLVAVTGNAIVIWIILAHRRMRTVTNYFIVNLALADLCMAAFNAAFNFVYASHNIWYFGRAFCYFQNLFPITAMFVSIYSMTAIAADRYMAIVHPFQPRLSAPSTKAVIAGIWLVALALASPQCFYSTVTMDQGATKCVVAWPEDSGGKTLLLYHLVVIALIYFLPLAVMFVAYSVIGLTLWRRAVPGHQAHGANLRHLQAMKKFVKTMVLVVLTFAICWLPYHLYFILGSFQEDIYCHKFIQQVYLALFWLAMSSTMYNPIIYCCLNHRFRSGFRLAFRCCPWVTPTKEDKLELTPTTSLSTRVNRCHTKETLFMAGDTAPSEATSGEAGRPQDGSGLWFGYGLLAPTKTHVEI
Assay: Radio-ligand ([125I]-NKA) receptor binding inhibitory activity using membrane fraction of hNK2 receptor-expressing CHO cell
Details: membrane fraction of hNK2 receptor-expressing CHO cells, 25° C., 30 min
Summary of the method: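 Inhibition of [125I]-NKA binding ([…] solution added) measured after 30 min at 25 °C using hNK2-CHO membrane fraction (20 μg/mL suspension) in pH 7.4 Tris buffer containing MnCl2, BSA and protease inhibitors. Filter-bound counts read; activity calculated as fraction of specific binding, non-specific defined with unlabeled NKA.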

| Structure (SMILES) | IC50 [µM] |
| --- | --- |
| Cc1cc(C(=O)N[C@@H]2CCCC[C@@H]2C(=O)N2CC[C@@H]3[C@H](c4ncc[nH]4)Nc4ccccc4[C@@H]32)ccc1C#N [Example 309, 4-Cyano-N-((1R,2S)-2-{[(3aR,4R,9bR)-4-(1H-imidazol-2-yl)-2,3,3a,4,5,9b-hexahydro-1H-pyrrolo[3,2-c]quinolin-1-yl]carbonyl}cyclohexyl)-3-methylbenzamide] | < 0.001 |
| O=C(NCCc1ccccc1)N[C@@H]1CCCC[C@@H]1C(=O)N1CC[C@@H]2[C@H](c3ccccc3)Nc3ccccc3[C@@H]21 [Example 146, N-(2-Phenylethyl)-N′-((1R,2S)-2-{[(3aR,4R,9bR)-4-phenyl-2,3,3a,4,5,9b-hexahydro-1H-pyrrolo[3,2-c]quinolin-1-yl]carbonyl}cyclohexyl)urea] | < 0.01 |
| COC[C@@H]1Nc2ccccc2[C@H]2[C@@H]1CCN2C(=O)[C@H]1CCCC[C@H]1NC(=O)c1ccc(OC(F)(F)F)cc1 [Example 215, N-((1R,2S)-2-{[(3aR,4R,9bR)-4-(Methoxymethyl)-2,3,3a,4,5,9b-hexahydro-1H-pyrrolo[3,2-c]quinolin-1-yl]carbonyl}cyclohexyl)-4-(trifluoromethoxy)benzamide] | < 0.001 |
| O=C(N[C@@H]1CCCC[C@@H]1C(=O)N1CC[C@@H]2[C@H](c3ccccc3)Nc3ccccc3[C@@H]21)c1ccccc1 (relative stereo) [Example 1, N-((1R,2S)-2-{[(3aR*,4R*,9bR*)-4-Phenyl-2,3,3a,4,5,9b-hexahydro-1H-pyrrolo[3,2-c]quinolin-1-yl]carbonyl}cyclohexyl)benzamide] | < 0.01 |
| O=C(Nc1cccc(Cl)c1)N[C@@H]1CCCC[C@@H]1C(=O)N1CC[C@@H]2[C@H](c3ccccc3)Nc3ccccc3[C@@H]21 [Example 141, N-(3-Chlorophenyl)-N′-((1R,2S)-2-{[(3aR,4R,9bR)-4-phenyl-2,3,3a,4,5,9b-hexahydro-1H-pyrrolo[3,2-c]quinolin-1-yl]carbonyl}cyclohexyl)urea] | < 0.01 |
| O=C(N[C@@H]1CCCC[C@@H]1C(=O)N1CC[C@@H]2[C@H](c3ccccc3)Nc3ccccc3[C@@H]21)c1ccc(Cl)cc1 [Example 114, 4-Chloro-N-((1R,2S)-2-{[(3aR,4R,9bR)-4-phenyl-2,3,3a,4,5,9b-hexahydro-1H-pyrrolo[3,2-c]quinolin-1-yl]carbonyl}cyclohexyl)benzamide] | < 0.01 |
| COC[C@@H]1Nc2ccccc2[C@H]2[C@@H]1CCN2C(=O)[C@H]1CCCC[C@H]1NC(=O)Nc1ccc(C#N)c(C)c1 [Example 283, N-(4-Cyano-3-methylphenyl)-N′-((1R,2S)-2-{[(3aR,4R,9bR)-4-(methoxymethyl)-2,3,3a,4,5,9b-hexahydro-1H-pyrrolo[3,2-c]quinolin-1-yl]carbonyl}cyclohexyl)urea] | < 0.001 |
| COCCCNC(=O)N[C@@H]1CCCC[C@@H]1C(=O)N1CC[C@@H]2[C@H](c3ccccc3)Nc3ccccc3[C@@H]21 [Example 161, N-(3-Methoxypropyl)-N′-((1R,2S)-2-{[(3aR,4R,9bR)-4-phenyl-2,3,3a,4,5,9b-hexahydro-1H-pyrrolo[3,2-c]quinolin-1-yl]carbonyl}cyclohexyl)urea] | < 0.01 |
| COC[C@@H]1Nc2ccccc2[C@H]2[C@@H]1CCN2C(=O)[C@H]1CCCC[C@H]1NC(=O)c1ccc(N2CCCCC2)nc1 [Example 254, N-((1R,2S)-2-{[(3aR,4R,9bR)-4-(Methoxymethyl)-2,3,3a,4,5,9b-hexahydro-1H-pyrrolo[3,2-c]quinolin-1-yl]carbonyl}cyclohexyl)-6-piperidin-1-ylnicotinamide] | < 0.001 |
| O=C(N[C@@H]1CCCC[C@@H]1C(=O)N1CC[C@@H]2[C@H](c3ccccc3)Nc3ccccc3[C@@H]21)c1ncc[nH]1 [Example 129, N-((1R,2S)-2-{[(3aR,4R,9bR)-4-Phenyl-2,3,3a,4,5,9b-hexahydro-1H-pyrrolo[3,2-c]quinolin-1-yl]carbonyl}cyclohexyl)-1H-imidazole-2-carboxamide] | < 0.01 |
| COc1ccc(C(=O)N[C@@H]2CCCC[C@@H]2C(=O)N2CC[C@@H]3[C@H](C4CC4)Nc4ccccc4[C@@H]32)cc1 [Example 180, N-((1R,2S)-2-{[(3aR,4S,9bR)-4-Cyclopropyl-2,3,3a,4,5,9b-hexahydro-1H-pyrrolo[3,2-c]quinolin-1-yl]carbonyl}cyclohexyl)-4-methoxybenzamide] | < 0.001 |
| Cc1ccccc1C(=O)N[C@@H]1CCCC[C@@H]1C(=O)N1CC[C@@H]2[C@H](c3ccccc3)Nc3ccccc3[C@@H]21 [Example 97, 2-Methyl-N-((1R,2S)-2-{[(3aR,4R,9bR)-4-phenyl-2,3,3a,4,5,9b-hexahydro-1H-pyrrolo[3,2-c]quinolin-1-yl]carbonyl}cyclohexyl)benzamide] | < 0.01 |
| COC[C@@H]1Nc2ccccc2[C@H]2[C@@H]1CCN2C(=O)[C@H]1CCCC[C@H]1NC(=O)c1ccc(N2CCN(C)CC2)cc1 [Example 267, N-((1R,2S)-2-{[(3aR,4R,9bR)-4-(Methoxymethyl)-2,3,3a,4,5,9b-hexahydro-1H-pyrrolo[3,2-c]quinolin-1-yl]carbonyl}cyclohexyl)-4-(4-methylpiperazin-1-yl)benzamide] | < 0.01 |
| COC[C@@H]1Nc2ccccc2[C@H]2[C@@H]1CCN2C(=O)[C@H]1CCCC[C@H]1NC(=O)c1ccc2ccccc2n1 [Example 247, N-((1R,2S)-2-{[(3aR,4R,9bR)-4-(Methoxymethyl)-2,3,3a,4,5,9b-hexahydro-1H-pyrrolo[3,2-c]quinolin-1-yl]carbonyl}cyclohexyl)quinoline-2-carboxamide] | < 0.01 |
| O=C(Nc1ccccc1)N[C@@H]1CCCC[C@@H]1C(=O)N1CC[C@@H]2[C@H](C3CC3)Nc3ccccc3[C@@H]21 [Example 183, N-((1R,2S)-2-{[(3aR,4S,9bR)-4-Cyclopropyl-2,3,3a,4,5,9b-hexahydro-1H-pyrrolo[3,2-c]quinolin-1-yl]carbonyl}cyclohexyl)-N′-phenylurea] | < 0.001 |
| O=C(Nc1ccc(C(F)(F)F)cc1)N[C@@H]1CCCC[C@@H]1C(=O)N1CC[C@@H]2[C@H](c3ccccc3)Nc3ccccc3[C@@H]21 [Example 140, N-((1R,2S)-2-{[(3aR,4R,9bR)-4-Phenyl-2,3,3a,4,5,9b-hexahydro-1H-pyrrolo[3,2-c]quinolin-1-yl]carbonyl}cyclohexyl)-N′-[4-(trifluoromethyl)phenyl]urea] | < 0.01 |
| O=C(N[C@@H]1CCCC[C@@H]1C(=O)N1CC[C@@H]2[C@H](c3ccoc3)Nc3ccccc3[C@@H]21)c1ccccc1 (relative stereo) [Example 16, N-((1R,2S)-2-{[(3aR*,4R*,9bR*)-4-(3-Furyl)-2,3,3a,4,5,9b-hexahydro-1H-pyrrolo[3,2-c]quinolin-1-yl]carbonyl}cyclohexyl)benzamide] | < 0.001 |
| N#Cc1ccc(C(=O)N[C@@H]2CCCC[C@@H]2C(=O)N2CC[C@@H]3[C@H](c4ccccc4)Nc4ccccc4[C@@H]32)cc1 [Example 102, 4-Cyano-N-((1R,2S)-2-([(3aR,4R,9bR)-4-phenyl-2,3,3a,4,5,9b-hexahydro-1H-pyrrolo[3,2-c]quinolin-1-yl]carbonyl)cyclohexyl)benzamide] | < 0.01 |
| COC[C@@H]1Nc2ccccc2[C@H]2[C@@H]1CCN2C(=O)[C@H]1CCCC[C@H]1NC(=O)Nc1ccccc1 [Example 204, N-((1R,2S)-2-{[(3aR,4R,9bR)-4-(Methoxymethyl)-2,3,3a,4,5,9b-hexahydro-1H-pyrrolo[3,2-c]quinolin-1-yl]carbonyl}cyclohexyl)-N′-phenylurea] | < 0.001 |
